In PMC8058344, “ARIH1 signaling promotes anti-tumor immunity by targeting PD-L1 for proteasomal degradation” (Nature Communications, 2021):
Several values for one entry are separate records, joined by “and”; a condition that tells them apart may be missing. Identical values can stand only once. Residues, ends and D or L forms follow the SMILES beside them. *: point of attachment. Cbz = O=C(OCc1ccccc1)*

Columns and labels:
PD-L1 in U937 cells = assay: PD-L1 levels in U937 cells by western blotting and flow cytometry; format: cell-based, human
Protocol: (§1) Fig. 1 EGFR inhibitors were screened to reduce membrane PD-L1 levels. a High-throughput screening of 2125 FDA-approved drugs or drug candidates. U937 cells were incubated with IFNγ (100 ng/mL) for 48 h, treated with the drugs at 10 μM for 12 h. Ruxolitinib (Rux) was used as a positive control. The hit compounds that induced the decrease of PD-L1 levels are shown in blue. The depth of blue represents decreased level of PD-L1. The heatmap represents the targeted pathways obtained from the high-throughput screening, based upon decreased membrane PD-L1 level detected by flow cytometry. b Immunoblotting of PD-L1 in U937 cells treated with ES-072 (ES) or AZD9291 (AZD) at indicated concentrations for 12 h. ES and AZD are EGFR inhibitors. c, d Median fluorescence intensity (MFI) (c) and relative quantification (d) of PD-L1 in U937 cells treated with 10 μM ES-072 or 10 μM AZD9291 for 12 h. Data represent means ± SEM, n = 18, 6 independent repeats, ****P < 0.0001. e–g Immunoblotting (e, f) and flow cytometry (g) analysis of PD-L1 levels in U937 cells treated with 10 μM ES-072 or 10 μM AZD9291 for the indicated times. h, i Immunoblottings (h) of PD-L1 and β-TrCP, relative quantification (i) of PD-L1 MFI in H1975 cells transfected with non-targeting siRNA (si-CTRL) or β-TrCP siRNAs (si-β-TrCP) and treated with or without 10 μM ES-072/AZD9291 for 12 h. Data represent means ± SEM, n = 9, 3 independent repeats, NS: no significant; ****P < 0.0001. j–l Immunoblotting (j) and flow cytometry analysis (k) with relative quantification (l) of PD-L1 in H1975 cells treated with 10 μM ES-072 or AZD9291, and/or 5 μM LY2090314 (LY) for 12 h. LY is a GSK3 inhibitor. […]
For western blot analysis, cells were collected and washed with PBS, then lysed in radioimmunoprecipitation assay (RIPA) buffer (1% Triton X-100, 100 mM Tris-HCl pH 8.8, 100 mM NaCl, 0.5 mM EDTA). […] The supernatant was collected and the protein concentration was measured by bicinchoninic acid reaction. […] Signals were detected using chemiluminescence reagents (#4AW001-500, 4A649 Biotech, Co.). […]

PD-L1 in H1975 cells = assay: PD-L1 levels in H1975 cells by immunoblotting and flow cytometry; format: cell-based, human
Protocol: as §1, with “h.” for “h. LY is a GSK3 inhibitor.”
Fig. 5 GSK3α-mediated phosphorylation of PD-L1 promotes PD-L1-ARIH1 interaction and ARIH1-induced degradation. a Co-IP analysis for the interaction of K48-ubiquitin, ARIH1 (HA), and PD-L1 in HEK293T cells transfected with HA-ARIH1 and Flag-PD-L1 (WT, S279A, S283A, or 2SA), treated with MG132 (10 μM) for 6 h; HA-tagged empty vector (HA-EV) was transfected as a negative control. b Co-IP analysis for the interaction of ARIH1 and PD-L1 in HEK293T cells transfected with HA-ARIH1 and Flag-PD-L1 (WT or 2SA), treated with 10 μM ES-072 for 24 h, Flag-tagged empty vector (Flag-EV) was transfected as a negative control. c HEK293T cells were transfected with Flag-PD-L1. Co-IP analysis for the interaction of ubiquitin and PD-L1 in HEK293T cells transfected with ARIH1-siRNAs or HA-GSK3α and treated with MG132 (10 μM) for 6 h; non-targeting siRNA (si-CTRL) was transfected as a negative control. d Immunoblots of PD-L1 and ARIH1 (HA) in H1975 cells transfected with HA-ARIH1, treated with or without 5 μM LY for 6 h. e, f MFI (e) and relative quantification (f) of PD-L1 in HA-ARIH1-overexpressed H1975 cells, treated with or without 5 μM LY for 6 h. […]

GSK3α = GSK3α (Homo sapiens, UniProt P49840); assay: In vitro kinase specificity profiling for GSK3α; format: biochemical
Sequence of GSK3α (P49840 whole entry): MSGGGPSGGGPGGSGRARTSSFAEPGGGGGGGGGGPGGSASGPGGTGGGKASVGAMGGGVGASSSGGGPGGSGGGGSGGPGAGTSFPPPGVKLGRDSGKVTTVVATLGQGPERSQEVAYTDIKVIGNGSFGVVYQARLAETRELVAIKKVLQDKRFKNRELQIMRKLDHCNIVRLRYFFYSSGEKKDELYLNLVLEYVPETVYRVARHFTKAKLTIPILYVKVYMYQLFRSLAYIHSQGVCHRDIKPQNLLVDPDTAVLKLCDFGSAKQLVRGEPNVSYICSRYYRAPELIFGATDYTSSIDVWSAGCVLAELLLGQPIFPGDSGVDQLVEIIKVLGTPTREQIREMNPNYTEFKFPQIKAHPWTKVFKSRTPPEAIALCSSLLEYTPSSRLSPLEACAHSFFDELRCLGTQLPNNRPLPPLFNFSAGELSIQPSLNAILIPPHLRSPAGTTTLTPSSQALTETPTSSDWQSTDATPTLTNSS

C=CC(=O)Nc1cc(Nc2nccc(-c3cn(C)c4ccccc34)n2)c(OC)cc1N(C)CCN(C)C [AZD9291, Osimertinib]
IFNγ-induced membranal PD-L1 levels (PD-L1 in U937 cells; western blotting and flow cytometry, 10 μM, 12 h): dramatically reduced

CC(C)C[C@@H](C=O)NC(=O)[C@H](CC(C)C)NC(=O)[C@H](CC(C)C)NC(=O)OCc1ccccc1 [MG132] (Cbz-Leu-Leu-Leu-aldehyde)
decrease in the PD-L1 levels induced by ES-072 (PD-L1 in H1975 cells; H1975 cells, 10 μM ES-072 and 10 μM MG132 for 6 h): rescued

N#CC[C@H](C1CCCC1)n1cc(-c2ncnc3[nH]ccc23)cn1 [Ruxolitinib]
IFNγ-induced PD-L1 levels (PD-L1 in U937 cells; 100 ng/mL IFNγ 48 h, 10 μM Ruxolitinib 12 h): blocked

O=C1NC(=O)C(c2cnc3ccccn23)=C1c1cn2c3c(cc(F)cc13)CN(C(=O)N1CCCCC1)CC2 [LY2090314]
ARIH1-overexpression-induced degradation of PD-L1 (PD-L1 in H1975 cells; H1975 cells transfected with HA-ARIH1, 5 μM LY for 6 h): rescued | reduction of PD-L1 levels induced following EGFR inhibition (PD-L1 in H1975 cells; H1975 cells, 5 μM LY2090314 with 10 μM ES-072 or AZD9291, 12 h): did block this reduction | IC50 (GSK3α; single independent tests): 0.98 nM and 0.81 nM and 0.84 nM | IC50 (GSK3α; value with spread given in main text): 0.87 ± 0.09 nM
